Experimental data taken from patent US20130338106A1, “COMPOUNDS INHIBITING LEUCINE-RICH REPEAT KINASE ENZYME ACTIVITY” (priority 2011, published 2013).
Where two headings read alike, the source gives them in different places.

Assays:
Type in all cases: biochemical
ALK = biological target: T1, ALK (Homo sapiens, UniProt Q9UM73); experiment: ProfilerPro Kinase Selectivity, ALK; conditions: tested at 10 uM, read-out: percent inhibition of the kinase activity
T1 construct: purchased Caliper LifeSciences
Protocol: (§1) Kinome selectivity profiling was performed using two example compounds according to the manufacturer's instructions using Caliper LifeSciences' ProfilerPro Kinase Selectivity Assay Kits. Compounds prepared in Examples 1 and 7 were tested at 10 uM and data were recorded using the Caliper LabChip® EZ Reader™. Each compounds' percent inhibition of the kinase activity measured in this manner is reported in the following lists.

AMPKA1 = biological target: T2, AMPKA1 (Homo sapiens, UniProt Q13131); experiment: ProfilerPro Kinase Selectivity, AMPKA1; conditions: tested at 10 uM, read-out: percent inhibition of the kinase activity
T2 construct: purchased Caliper LifeSciences
Protocol: as §1

AMPKA2/B1/G1 = biological target: T3, AMPKA2/B1/G1 (Homo sapiens, UniProt P54646); experiment: ProfilerPro Kinase Selectivity, AMPKA2/B1/G1; conditions: tested at 10 uM, read-out: percent inhibition of the kinase activity
T3 construct: purchased Caliper LifeSciences
Protocol: as §1

AURB = biological target: T4, AURB (Homo sapiens, UniProt Q96GD4); experiment: ProfilerPro Kinase Selectivity, AURB; conditions: tested at 10 uM, read-out: percent inhibition of the kinase activity
T4 construct: purchased Caliper LifeSciences
T4 sequence (Q96GD4 whole entry): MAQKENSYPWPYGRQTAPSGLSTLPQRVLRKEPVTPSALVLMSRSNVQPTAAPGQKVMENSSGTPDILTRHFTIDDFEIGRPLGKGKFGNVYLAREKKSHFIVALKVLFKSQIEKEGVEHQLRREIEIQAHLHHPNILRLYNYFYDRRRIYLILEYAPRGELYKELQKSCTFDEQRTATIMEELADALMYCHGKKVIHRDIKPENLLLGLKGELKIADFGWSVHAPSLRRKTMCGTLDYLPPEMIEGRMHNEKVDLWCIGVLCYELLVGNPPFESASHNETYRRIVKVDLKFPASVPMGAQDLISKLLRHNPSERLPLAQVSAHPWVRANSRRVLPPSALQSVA
Protocol: as §1

BRSK1 = biological target: T5, BRSK1 (Homo sapiens, UniProt Q8TDC3); experiment: ProfilerPro Kinase Selectivity, BRSK1; conditions: tested at 10 uM, read-out: percent inhibition of the kinase activity
T5 construct: purchased Caliper LifeSciences
T5 sequence (Q8TDC3 whole entry, species assumed): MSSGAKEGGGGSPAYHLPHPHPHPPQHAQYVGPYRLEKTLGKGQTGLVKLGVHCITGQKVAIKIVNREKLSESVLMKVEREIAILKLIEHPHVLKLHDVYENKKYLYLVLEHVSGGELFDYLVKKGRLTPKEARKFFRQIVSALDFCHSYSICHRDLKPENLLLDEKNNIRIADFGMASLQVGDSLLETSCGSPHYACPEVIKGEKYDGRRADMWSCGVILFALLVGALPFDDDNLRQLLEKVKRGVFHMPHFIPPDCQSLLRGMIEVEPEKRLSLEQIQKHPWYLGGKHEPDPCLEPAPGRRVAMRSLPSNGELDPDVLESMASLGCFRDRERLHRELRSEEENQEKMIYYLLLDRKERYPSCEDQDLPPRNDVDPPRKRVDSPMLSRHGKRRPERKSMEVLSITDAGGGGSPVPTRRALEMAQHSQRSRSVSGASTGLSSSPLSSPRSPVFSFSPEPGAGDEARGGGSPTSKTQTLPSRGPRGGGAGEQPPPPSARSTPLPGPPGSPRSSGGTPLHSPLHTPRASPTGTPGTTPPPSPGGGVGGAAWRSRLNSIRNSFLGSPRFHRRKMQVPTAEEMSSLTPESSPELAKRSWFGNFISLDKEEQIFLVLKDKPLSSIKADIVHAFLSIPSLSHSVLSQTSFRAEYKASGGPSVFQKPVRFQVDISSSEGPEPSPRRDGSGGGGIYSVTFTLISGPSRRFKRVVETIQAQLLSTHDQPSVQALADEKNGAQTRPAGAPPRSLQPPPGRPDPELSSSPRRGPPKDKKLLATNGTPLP
Protocol: as §1

CAMK1D = biological target: T6, CAMK1D (Homo sapiens, UniProt Q8IU85); experiment: ProfilerPro Kinase Selectivity, CAMK1D; conditions: tested at 10 uM, read-out: percent inhibition of the kinase activity
T6 construct: purchased Caliper LifeSciences
T6 sequence (Q8IU85 whole entry, species assumed): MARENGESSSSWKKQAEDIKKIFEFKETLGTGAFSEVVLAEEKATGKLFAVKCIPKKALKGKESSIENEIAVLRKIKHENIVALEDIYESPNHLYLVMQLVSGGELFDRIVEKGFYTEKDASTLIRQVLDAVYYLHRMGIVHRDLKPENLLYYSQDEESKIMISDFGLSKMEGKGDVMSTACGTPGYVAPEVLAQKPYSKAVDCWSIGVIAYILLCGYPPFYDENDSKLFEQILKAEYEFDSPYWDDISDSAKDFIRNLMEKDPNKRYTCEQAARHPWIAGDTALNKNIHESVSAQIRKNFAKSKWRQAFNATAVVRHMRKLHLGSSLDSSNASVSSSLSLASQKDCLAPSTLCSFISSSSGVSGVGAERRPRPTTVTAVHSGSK
Protocol: as §1

CK1E = biological target: T7, CK1E (Homo sapiens, UniProt P49674); experiment: ProfilerPro Kinase Selectivity, CK1E; conditions: tested at 10 uM, read-out: percent inhibition of the kinase activity
T7 construct: purchased Caliper LifeSciences
T7 sequence (P49674 whole entry): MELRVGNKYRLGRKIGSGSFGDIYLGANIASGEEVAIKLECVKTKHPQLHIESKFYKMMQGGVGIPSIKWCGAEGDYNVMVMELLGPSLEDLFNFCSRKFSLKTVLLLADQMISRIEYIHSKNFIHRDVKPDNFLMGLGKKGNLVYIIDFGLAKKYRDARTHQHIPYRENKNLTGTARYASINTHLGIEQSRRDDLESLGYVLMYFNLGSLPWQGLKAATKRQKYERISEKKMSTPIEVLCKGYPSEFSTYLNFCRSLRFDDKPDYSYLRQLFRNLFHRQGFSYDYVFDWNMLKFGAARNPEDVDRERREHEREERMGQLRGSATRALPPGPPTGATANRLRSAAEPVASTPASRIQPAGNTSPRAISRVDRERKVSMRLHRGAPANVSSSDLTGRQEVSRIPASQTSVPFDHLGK
Protocol: as §1

DYRK1B = biological target: T8, DYRK1B (Homo sapiens, UniProt Q9Y463); experiment: ProfilerPro Kinase Selectivity, DYRK1B; conditions: tested at 10 uM, read-out: percent inhibition of the kinase activity
T8 construct: purchased Caliper LifeSciences
Protocol: as §1

FER = biological target: T9, FER (Homo sapiens, UniProt P16591); experiment: ProfilerPro Kinase Selectivity, FER; conditions: tested at 10 uM, read-out: percent inhibition of the kinase activity
T9 construct: purchased Caliper LifeSciences
Protocol: as §1

FLT4 = biological target: T10, FLT4 (Homo sapiens, UniProt P35916); experiment: ProfilerPro Kinase Selectivity, FLT4; conditions: tested at 10 uM, read-out: percent inhibition of the kinase activity
T10 construct: purchased Caliper LifeSciences
Protocol: as §1

GSK3A = biological target: T11, GSK3A (Homo sapiens, UniProt P49840); experiment: ProfilerPro Kinase Selectivity, GSK3A; conditions: tested at 10 uM, read-out: percent inhibition of the kinase activity
T11 construct: purchased Caliper LifeSciences
Protocol: as §1

HIPK2 = biological target: T12, HIPK2 (Homo sapiens, UniProt Q9H2X6); experiment: ProfilerPro Kinase Selectivity, HIPK2; conditions: tested at 10 uM, read-out: percent inhibition of the kinase activity
T12 construct: purchased Caliper LifeSciences
Protocol: as §1

JAK2 = biological target: T13, JAK2 (Homo sapiens, UniProt O60674); experiment: ProfilerPro Kinase Selectivity, JAK2; conditions: tested at 10 uM, read-out: percent inhibition of the kinase activity
T13 construct: purchased Caliper LifeSciences
T13 sequence (O60674 whole entry, species assumed): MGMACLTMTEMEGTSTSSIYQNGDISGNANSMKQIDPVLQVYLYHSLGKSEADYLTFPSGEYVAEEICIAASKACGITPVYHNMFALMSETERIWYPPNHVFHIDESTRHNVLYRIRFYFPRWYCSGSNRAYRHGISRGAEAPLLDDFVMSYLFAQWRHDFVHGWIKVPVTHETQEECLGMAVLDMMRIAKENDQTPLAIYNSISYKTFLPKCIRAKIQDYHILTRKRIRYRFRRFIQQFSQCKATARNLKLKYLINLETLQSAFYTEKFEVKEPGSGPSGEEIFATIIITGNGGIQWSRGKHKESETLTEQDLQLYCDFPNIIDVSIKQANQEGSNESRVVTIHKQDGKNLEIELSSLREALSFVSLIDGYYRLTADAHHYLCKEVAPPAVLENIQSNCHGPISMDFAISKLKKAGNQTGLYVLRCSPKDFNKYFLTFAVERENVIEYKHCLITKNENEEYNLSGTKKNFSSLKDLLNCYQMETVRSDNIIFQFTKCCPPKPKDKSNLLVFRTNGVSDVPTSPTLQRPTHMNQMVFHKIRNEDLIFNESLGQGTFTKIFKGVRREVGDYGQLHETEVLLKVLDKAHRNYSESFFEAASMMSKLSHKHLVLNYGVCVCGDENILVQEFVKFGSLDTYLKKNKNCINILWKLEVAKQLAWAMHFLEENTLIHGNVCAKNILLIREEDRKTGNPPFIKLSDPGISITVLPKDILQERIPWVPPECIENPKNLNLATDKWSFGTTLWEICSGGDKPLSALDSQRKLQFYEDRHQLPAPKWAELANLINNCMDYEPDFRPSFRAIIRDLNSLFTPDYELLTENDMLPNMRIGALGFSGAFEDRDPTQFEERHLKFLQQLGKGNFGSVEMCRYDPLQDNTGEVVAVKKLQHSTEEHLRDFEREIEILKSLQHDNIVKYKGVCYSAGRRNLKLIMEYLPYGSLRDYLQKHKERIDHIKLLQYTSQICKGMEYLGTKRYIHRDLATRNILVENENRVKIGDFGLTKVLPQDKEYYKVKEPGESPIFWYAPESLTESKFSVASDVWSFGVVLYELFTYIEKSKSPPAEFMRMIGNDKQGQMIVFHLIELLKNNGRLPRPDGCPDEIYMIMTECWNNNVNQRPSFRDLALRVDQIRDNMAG
Protocol: as §1

LRRK2 = LRRK2 (Homo sapiens, UniProt Q5S007); experiment: ProfilerPro Kinase Selectivity, LRRK2; conditions: read-out: percent inhibition of the kinase activity
Protocol: as §1, with “Reader™.” for “Reader™. Each compounds' percent inhibition of the kinase activity measured in this manner is reported in the following lists.”

P38D = biological target: T14, P38D (Homo sapiens, UniProt O15264); experiment: ProfilerPro Kinase Selectivity, P38D; conditions: tested at 10 uM, read-out: percent inhibition of the kinase activity
T14 construct: purchased Caliper LifeSciences
T14 sequence (O15264 whole entry): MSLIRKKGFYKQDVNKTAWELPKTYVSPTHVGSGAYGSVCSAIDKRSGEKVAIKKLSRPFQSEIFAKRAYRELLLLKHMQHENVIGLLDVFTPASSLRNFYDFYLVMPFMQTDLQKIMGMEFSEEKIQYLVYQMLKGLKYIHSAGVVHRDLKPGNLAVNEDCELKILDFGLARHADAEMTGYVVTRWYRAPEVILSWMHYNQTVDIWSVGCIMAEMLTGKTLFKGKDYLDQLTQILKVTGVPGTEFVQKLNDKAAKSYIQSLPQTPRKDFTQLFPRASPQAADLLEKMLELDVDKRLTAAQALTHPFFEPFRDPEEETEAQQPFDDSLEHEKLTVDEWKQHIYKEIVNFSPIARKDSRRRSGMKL
Protocol: as §1

PIM2 = biological target: T15, PIM2 (Homo sapiens, UniProt Q9P1W9); experiment: ProfilerPro Kinase Selectivity, PIM2; conditions: tested at 10 uM, read-out: percent inhibition of the kinase activity
T15 construct: purchased Caliper LifeSciences
Protocol: as §1

PKCI = biological target: T16, PKCI (Homo sapiens, UniProt P41743); experiment: ProfilerPro Kinase Selectivity, PKCI; conditions: tested at 10 uM, read-out: percent inhibition of the kinase activity
T16 construct: purchased Caliper LifeSciences
Protocol: as §1

PKD2 = biological target: T17, PKD2 (Homo sapiens, UniProt Q9BZL6); experiment: ProfilerPro Kinase Selectivity, PKD2; conditions: tested at 10 uM, read-out: percent inhibition of the kinase activity
T17 construct: purchased Caliper LifeSciences
Protocol: as §1

PRKCB2 = biological target: T18, PRKCB2 (Homo sapiens, UniProt P05771); experiment: ProfilerPro Kinase Selectivity, PRKCB2; conditions: tested at 10 uM, read-out: percent inhibition of the kinase activity
T18 construct: purchased Caliper LifeSciences
T18 sequence (P05771 1-673 isoform P05771-2, species assumed): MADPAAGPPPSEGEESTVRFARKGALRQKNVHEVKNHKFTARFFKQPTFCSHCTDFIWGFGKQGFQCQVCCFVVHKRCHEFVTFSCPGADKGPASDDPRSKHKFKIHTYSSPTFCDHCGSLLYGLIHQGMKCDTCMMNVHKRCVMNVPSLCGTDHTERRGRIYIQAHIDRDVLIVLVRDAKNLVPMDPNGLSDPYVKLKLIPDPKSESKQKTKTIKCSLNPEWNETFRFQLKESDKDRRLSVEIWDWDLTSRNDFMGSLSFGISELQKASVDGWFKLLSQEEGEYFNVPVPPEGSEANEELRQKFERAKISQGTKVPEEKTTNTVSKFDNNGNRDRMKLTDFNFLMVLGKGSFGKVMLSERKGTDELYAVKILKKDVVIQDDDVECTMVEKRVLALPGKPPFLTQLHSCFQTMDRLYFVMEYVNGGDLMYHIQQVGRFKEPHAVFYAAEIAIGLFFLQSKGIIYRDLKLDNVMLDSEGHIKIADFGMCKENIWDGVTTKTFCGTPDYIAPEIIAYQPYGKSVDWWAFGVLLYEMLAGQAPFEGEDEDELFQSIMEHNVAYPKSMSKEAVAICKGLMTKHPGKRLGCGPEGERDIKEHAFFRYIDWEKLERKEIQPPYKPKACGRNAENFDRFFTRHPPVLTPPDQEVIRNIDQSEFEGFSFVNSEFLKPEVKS
Protocol: as §1

PRKCE = biological target: T19, PRKCE (Homo sapiens, UniProt Q02156); experiment: ProfilerPro Kinase Selectivity, PRKCE; conditions: tested at 10 uM, read-out: percent inhibition of the kinase activity
T19 construct: purchased Caliper LifeSciences
T19 sequence (Q02156 whole entry, species assumed): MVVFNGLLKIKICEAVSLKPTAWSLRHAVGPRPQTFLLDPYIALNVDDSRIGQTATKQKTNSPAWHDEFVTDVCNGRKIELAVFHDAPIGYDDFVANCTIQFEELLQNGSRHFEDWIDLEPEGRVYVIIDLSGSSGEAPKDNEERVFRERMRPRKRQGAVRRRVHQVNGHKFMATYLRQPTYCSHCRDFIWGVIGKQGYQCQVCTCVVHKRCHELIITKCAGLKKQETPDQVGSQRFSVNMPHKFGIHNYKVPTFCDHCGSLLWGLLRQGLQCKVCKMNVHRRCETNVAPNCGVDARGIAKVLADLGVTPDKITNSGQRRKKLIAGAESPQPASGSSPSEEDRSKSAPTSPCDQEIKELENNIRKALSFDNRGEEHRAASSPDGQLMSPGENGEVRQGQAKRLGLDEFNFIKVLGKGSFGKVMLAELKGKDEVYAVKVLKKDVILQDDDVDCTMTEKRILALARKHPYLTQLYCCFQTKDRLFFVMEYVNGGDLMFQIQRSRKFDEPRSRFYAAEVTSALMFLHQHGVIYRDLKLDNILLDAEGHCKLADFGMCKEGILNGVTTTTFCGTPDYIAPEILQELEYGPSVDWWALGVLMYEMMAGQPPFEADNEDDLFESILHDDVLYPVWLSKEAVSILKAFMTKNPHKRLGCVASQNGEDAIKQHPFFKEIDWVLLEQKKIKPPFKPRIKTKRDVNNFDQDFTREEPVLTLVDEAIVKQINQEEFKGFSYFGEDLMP
Protocol: as §1

PRKCQ = biological target: T20, PRKCQ (Homo sapiens, UniProt Q04759); experiment: ProfilerPro Kinase Selectivity, PRKCQ; conditions: tested at 10 uM, read-out: percent inhibition of the kinase activity
T20 construct: purchased Caliper LifeSciences
Protocol: as §1

TSSK1 = biological target: T21, TSSK1 (Homo sapiens, UniProt Q9BXA7); experiment: ProfilerPro Kinase Selectivity, TSSK1; conditions: tested at 10 uM, read-out: percent inhibition of the kinase activity
T21 construct: purchased Caliper LifeSciences
Protocol: as §1

Structure (SMILES) | inhibition at 10 µM (ALK) [%] | inhibition at 10 µM (AMPKA1) [%] | inhibition at 10 µM (AMPKA2/B1/G1) [%] | inhibition at 10 µM (AURB) [%] | inhibition at 10 µM (BRSK1) [%] | inhibition at 10 µM (CAMK1D) [%] | inhibition at 10 µM (CK1E) [%] | inhibition at 10 µM (DYRK1B) [%] | inhibition at 10 µM (FER) [%] | inhibition at 10 µM (FLT4) [%] | inhibition at 10 µM (GSK3A) [%] | inhibition at 10 µM (HIPK2) [%] | inhibition at 10 µM (JAK2) [%] | inhibition at 10 µM (P38D) [%] | inhibition at 10 µM (PIM2) [%] | inhibition at 10 µM (PKCI) [%] | inhibition at 10 µM (PKD2) [%] | inhibition at 10 µM (PRKCB2) [%] | inhibition at 10 µM (PRKCE) [%] | inhibition at 10 µM (PRKCQ) [%] | also measured
CSc1sc(-c2cc[nH]n2)c2c1C(=O)CCC2 [Example 1, 3-(Methylsulfanyl)-1-(1H-pyrazol-3-yl)-6,7-dihydro-2-benzothiophen-4(5H)-one] | 23.8 | 16.4 | -2.7 | 57.7 | -0.2 | -3.1 | 10.9 | 40.2 | 11.6 | 22.5 | 8.5 | 25.2 | 19.4 | 4.2 | 1.6 | -14 | -2.5 | -7.4 | -2.7 | -0.4 | inhibition at 10 µM (LRRK2): 93.9%; inhibition at 10 µM (TSSK1): 24%
CC1(C)CC(=O)c2c(SC3CCCC3)sc(-c3cc[nH]n3)c2C1 [Example 7, 3-(Cyclopentylsulfanyl)-6,6-dimethyl-1-(1H-pyrazol-3-yl)-6,7-dihydro-2-benzothiophen-4(5H)-one] | 44.7 | -0.5 | 4.5 | -3.1 | 3.8 | 4 | 5.1 | 4.7 | -0.2 | 2 | -8.3 | 5 | 5.3 | -0.3 | -1.6 | -8.9 | -4.2 | 6.4 | 3.9 | -4.7 | inhibition at 10 µM (LRRK2; LRRK2, tested at 10 uM): 83.1%; inhibition at 10 µM (TSSK1): 8.3%
